Assay results published in PMC8760490, “Discovery of novel furanylbenzamide inhibitors that target oncogenic tyrosine phosphatase SHP2 in leukemia cells” (The Journal of Biological Chemistry, 2021).
Like-named read-outs stand apart in the source and are kept apart here.

Experiments:
MOLM-13 AML cells = test: Cell viability (CellTiter-Glo), MOLM-13; assay type: cell-based; conditions: Homo sapiens
Procedure: Inhibition of SHP2 has been reported to inhibit the growth of cancer cells including Kasumi-1 acute myeloid leukemia (AML) and KYSE-520 esophageal cancer cells ([30]). […] Thus, we treated two TNBC cell lines, BT-549 and MDA-MB-468, with SBI-4668 or the SHP2 allosteric inhibitor SHP099 at various concentrations and determined cell viability after 72 h, compared with the vehicle control (Fig. 4C). […] Next, we performed an 11-day colony formation assay with TNBC cells treated with SBI-4668 or SHP099 at 5, 10, or 20 μM (Fig. 4D).
(§1) Finally, we evaluated the selectivity of our top two compounds, SBI-2130 and SBI-4668, on MOLM-13 AML cells in which SHP2 was depleted using CRISPR–Cas9 KO. High-efficiency Cas9-editing MOLM-13 cells were generated by transducing MOLM-13 cells with a Cas9 lentiviral construct. Stable clones were tested for editing efficiency by performing tracking of indels by decomposition analysis ([45]), and these MOLM-13-Cas9 cells were transduced with a lentiviral construct containing an AAVS1 single-guide RNA (sgRNA) and an mCherry reporter for bulk sorting of cells with successful AAVS1 editing. SHP2 KO was achieved by transducing MOLM-13-Cas9-mCherry cells with a lentivirus, containing SHP2 dual sgRNAs, resulting in ∼80% reduction of SHP2 protein levels (Fig. 4G). SBI-2130, SBI-4668, and the SHP2 allosteric inhibitor, SHP099, were tested in parallel on regular MOLM-13 cells (expressing WT SHP2) and MOLM-13-Cas9-mCherry cells with SHP2 KO. Cells were treated with inhibitors at various concentrations (ranging from 30 μM to 58 nM) or vehicle control (DMSO) for 72 h, before cell viability was assessed.
Viability of AML and esophageal carcinoma cells was assessed using the ATP-depletion assay CellTiter-Glo (Promega). Cells were harvested at 1 × 10^6/ml to 2 × 10^6 cells/ml with cell numbers determined by trypan blue using the Countess Cell counter (Thermo Scientific) and resuspended in culture media. About 3000 cells (in 20 μl) were seeded in a 384-well format white and clear-bottom microplate (catalog no.: 781098; Greiner) spotted with test compound or vehicle control (DMSO) using an Echo 555 Liquid Handler. […] Luminescence was read on a Tecan Spark Multimode Microplate Reader, and data were analyzed using GraphPad Prism software.
For SHP2 KO, dual sgRNAs targeting SHP2 were cloned in the pLentiGuide puro vector (Addgene plasmid no. 52963 from Dr Feng Zhang) using a published protocol ([50]). […] SHP2 KO was evaluated by immunoblotting. […] For SHP2 KO, MOLM-13-Cas9-mCherry cells were seeded in nontreated 6-well plates (2 × 10^6 cells/well in 2.5 ml), with cell numbers determined by trypan blue using the Countess Cell Counter (Thermo Scientific). […]

[1] = tested on: MOLM-13-Cas9-mCherry cells with SHP2 KO; test: Cell viability, MOLM-13 SHP2 CRISPR–Cas9 KO; assay type: cell-based; conditions: 72 h, 30 μM to 58 nM
Procedure: as §1, with “SHP2 KO was achieved by transducing MOLM-13-Cas9-mCherry cells with a lentivirus, containing SHP2 dual sgRNAs, resulting in ∼80% reduction of SHP2 protein levels (Fig. 4G). SBI-2130, SBI-4668, and the SHP2 allosteric inhibitor, SHP099, were tested in parallel on regular MOLM-13 cells (expressing WT SHP2) and MOLM-13-Cas9-mCherry cells with SHP2 KO.” left out, “assessed. […]” for “assessed.”
For SHP2 KO, dual sgRNAs targeting SHP2 were cloned in the pLentiGuide puro vector (Addgene plasmid no. 52963 from Dr Feng Zhang) using a published protocol ([50]). […] SHP2 KO was evaluated by immunoblotting. […] For SHP2 KO, MOLM-13-Cas9-mCherry cells were seeded in nontreated 6-well plates (2 × 10^6 cells/well in 2.5 ml), with cell numbers determined by trypan blue using the Countess Cell Counter (Thermo Scientific). […] Cell viability was assessed using the ATP-depletion assay CellTiter-Glo as described previously, and data were analyzed using GraphPad Prism software.

[2] = 72 h, 30 μM to 58 nM, regular MOLM-13 expressing WT SHP2 (Fig. 4G), read-out: MOLM-13 cell viability IC50 (parallel to SHP2 KO)

SMILES	IC50 (MOLM-13 AML cells; [2]) [µM]	effect on viability of MOLM-13-Cas9-mCherry SHP2 KO cells [1]	IC50 (MOLM-13 AML cells; MOLM-13, 72 h, 3 days in culture (Fig. 4B), read-out: MOLM-13 cell viability IC50) [µM]
Nc1ccc(NC(=O)c2cc(-c3ccc(/C=C4\Sc5ccccc5C4=O)o3)ccc2O)cc1 [SBI-2130, (Z)-N-(4-Aminophenyl)-2-hydroxy-5-(5-((3-oxobenzo[b]thiophen-2(3H)-ylidene)methyl)furan-2-yl)benzamide]	7.6	either completely abrogated or greatly reduced	
O=C(Nc1ccccc1)c1cc(-c2ccc(/C=C3\Sc4ccccc4C3=O)o2)ccc1O [SBI-4668, (Z)-2-Hydroxy-5-(5-((3-oxobenzo[b]thiophen-2(3H)-ylidene)methyl)furan-2-yl)-N-phenylbenzamide]	15	either completely abrogated or greatly reduced	12
